Reference: PubChem BioAssay AID2060350 (Molecular Pharmacology Branch, DTP, NCI, 2025)

System: PDC 521955-158-R6-J3 spheroids, viability
Experiment: Anticancer human tumor 521955-158-R6-J3-PDC patient-derived pancreatic carcinoma cell line growth inhibition [TAK]
Conditions: spheroids with HUVEC and MSC; for IC50: curve of first compound; for viability, T/C: stronger effect = lower value
Method in brief: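 Tumor cells were grown as spheroids with HUVEC and hMSC (60:25:15) and treated with targeted agents combined with TAK-243 or ipatasertib. Drugs were tested in half-log steps down from near the clinical Cmax, or from 10 microM where Cmax was unknown.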
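Further: spheroids exposed to drugs for 7 days before readout.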
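Wherever viability, T/C is given: 100% = DMSO vehicle control viability.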

Structure (SMILES): CC(C)CC(NC(=O)C(Cc1ccccc1)NC(=O)c1cnccn1)B(O)O (stereo not given) + CC(C)NCC(C(=O)N1CCN(c2ncnc3c2C(C)CC3O)CC1)c1ccc(Cl)cc1
- IC50 (second compound 0.3 µM): 5.96 nM
- IC50 (second compound 0.949 µM): 5.82 nM
- IC50 (second compound 3 µM): 5.71 nM
- IC50 (second compound 9.49 µM): 6.02 nM
- IC50 (second compound 30 µM): 5.65 nM
- viability, T/C (second compound 0.3 µM, first compound 31.6 pM): 94.4%
- viability, T/C (second compound 0.3 µM, first compound 0.0001 µM): 95.4%
- viability, T/C (second compound 0.3 µM, first compound 0.000316 µM): 94.5%
- viability, T/C (second compound 0.3 µM, first compound 0.001 µM): 96.1%
- viability, T/C (second compound 0.3 µM, first compound 0.00316 µM): 111%
- viability, T/C (second compound 0.3 µM, first compound 0.01 µM): 10.6%
- viability, T/C (second compound 0.949 µM, first compound 31.6 pM): 94.3%
- viability, T/C (second compound 0.949 µM, first compound 0.0001 µM): 84.2%
- viability, T/C (second compound 0.949 µM, first compound 0.000316 µM): 93.5%
- viability, T/C (second compound 0.949 µM, first compound 0.001 µM): 103%
- viability, T/C (second compound 0.949 µM, first compound 0.00316 µM): 109%
- viability, T/C (second compound 0.949 µM, first compound 0.01 µM): 8.36%
- viability, T/C (second compound 3 µM, first compound 31.6 pM): 90.6%
- viability, T/C (second compound 3 µM, first compound 0.0001 µM): 90.5%
- viability, T/C (second compound 3 µM, first compound 0.000316 µM): 93%
- viability, T/C (second compound 3 µM, first compound 0.001 µM): 93.7%
- viability, T/C (second compound 3 µM, first compound 0.00316 µM): 113%
- viability, T/C (second compound 3 µM, first compound 0.01 µM): 6.03%
- viability, T/C (second compound 9.49 µM, first compound 31.6 pM): 94.3%
- viability, T/C (second compound 9.49 µM, first compound 0.0001 µM): 89%
- viability, T/C (second compound 9.49 µM, first compound 0.000316 µM): 97.6%
- viability, T/C (second compound 9.49 µM, first compound 0.001 µM): 96.1%
- viability, T/C (second compound 9.49 µM, first compound 0.00316 µM): 104%
- viability, T/C (second compound 9.49 µM, first compound 0.01 µM): 13.5%
- viability, T/C (second compound 30 µM, first compound 31.6 pM): 93.8%
- viability, T/C (second compound 30 µM, first compound 0.0001 µM): 92.1%
- viability, T/C (second compound 30 µM, first compound 0.000316 µM): 89.9%
- viability, T/C (second compound 30 µM, first compound 0.001 µM): 98.5%
- viability, T/C (second compound 30 µM, first compound 0.00316 µM): 98.4%
- viability, T/C (second compound 30 µM, first compound 0.01 µM): 6.17%
